Assay [1] has as its target T1, Acetylcholinesterase (Homo sapiens, UniProt P22303). The assay is described as follows: Inhibition of human AChE using acetylthiocholine as substrate by Ellman's method. On the technique in general: DTNB colorimetry detects thiols as they appear.
For assay [2], the target named is T1, Acetylcholinesterase. The assay is described as follows: Potency index, ratio of donepezil IC50 to compound IC50 for human AChE.
Assay [3] is described as follows: Metal chelating activity assessed as Cu2+-compound complex formation at 35 uM by UV-Visible spectrophotometric method.

The values below come from ChEMBL document CHEMBL4190278, “Multipotent AChE and BACE-1 inhibitors for the treatment of Alzheimer's disease: Design, synthesis and bio-analysis of 7-amino-1,4-dihydro-2H-isoquilin-3-one derivates” (Eur J Med Chem, 2017).

The source made the active and inactive calls. The calls are words filed in the database; no cut-off is given here.

T1 sequence (P22303 whole entry): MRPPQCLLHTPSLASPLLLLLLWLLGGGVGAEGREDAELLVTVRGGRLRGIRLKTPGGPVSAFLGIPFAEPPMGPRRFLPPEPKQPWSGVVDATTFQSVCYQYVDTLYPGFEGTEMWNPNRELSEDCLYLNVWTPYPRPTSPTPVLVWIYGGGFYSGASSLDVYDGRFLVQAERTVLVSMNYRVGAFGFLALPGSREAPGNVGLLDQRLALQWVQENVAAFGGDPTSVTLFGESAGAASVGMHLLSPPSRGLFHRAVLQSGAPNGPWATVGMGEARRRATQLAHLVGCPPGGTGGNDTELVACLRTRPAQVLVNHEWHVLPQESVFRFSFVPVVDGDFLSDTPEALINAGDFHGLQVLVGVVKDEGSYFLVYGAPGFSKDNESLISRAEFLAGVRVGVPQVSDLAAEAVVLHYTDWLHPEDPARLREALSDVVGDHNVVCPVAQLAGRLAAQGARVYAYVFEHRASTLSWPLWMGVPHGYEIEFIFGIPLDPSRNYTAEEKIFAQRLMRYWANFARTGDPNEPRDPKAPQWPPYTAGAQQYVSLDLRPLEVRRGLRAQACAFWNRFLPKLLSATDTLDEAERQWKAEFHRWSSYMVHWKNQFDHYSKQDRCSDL

The compound `Cc1cccc(C(=O)Nc2ccc3c(c2)CNC(=O)C3)c1` returned an IC50 against Acetylcholinesterase [1] of 791 nM. This lies in the sub-micromolar range. The same measure, in the same setting: to `Cc1cccc(C(=O)N2Cc3cc(NC(=O)c4cccc(Cl)c4)ccc3CC2=O)c1` belongs 0.0144 nM.

Take `O=C(Nc1ccc2c(c1)CN(C(=O)c1cccc(Cl)c1)C(=O)C2)c1ccccc1`: the IC50 at Acetylcholinesterase [1] was found to be 0.0284 nM. `COc1ccccc1C(=O)Nc1ccc2c(c1)CN(C(=O)c1ccccc1OC)C(=O)C2` came in with an IC50 against Acetylcholinesterase [1] of 0.0216 nM. The IC50 values of the last two compounds are within 1.5-fold of each other.

Consider `O=C(Nc1ccc2c(c1)CN(C(=O)c1cccc(Cl)c1)C(=O)C2)c1cccc(Cl)c1`, for which it took 0.0142 nM to reach half-maximal inhibition against Acetylcholinesterase [1] (IC50). The same measure, in the same setting: to `COc1ccccc1C(=O)Nc1ccc2c(c1)CN(C(=O)c1cccc(C)c1)C(=O)C2` belongs 0.0259 nM; to `COc1ccccc1C(=O)Nc1ccc2c(c1)CNC(=O)C2`, 926 nM. The same measure, in the same setting: to `O=C1Cc2ccc(NC(=O)c3cccc(Cl)c3)cc2CN1` belongs 914 nM; to `Cc1cccc(C(=O)N2Cc3cc(NC(=O)c4ccccc4)ccc3CC2=O)c1`, 0.0262 nM. For `COc1ccccc1C(=O)N1Cc2cc(NC(=O)c3cccc(Cl)c3)ccc2CC1=O`, the Ratio IC50 at Acetylcholinesterase [2] was 315.

As to `Nc1ccc2c(c1)CNC(=O)C2`, it took 1360 nM to reach half-maximal inhibition on Acetylcholinesterase [1] (IC50).

In the case of `COc1ccccc1C(=O)N1Cc2cc(NC(=O)c3ccccc3)ccc2CC1=O`, the result in assay [3] was Active. Besides, on Acetylcholinesterase [2], the Ratio IC50 came to 181. At Acetylcholinesterase [1], this compound came in with an IC50 of 0.0189 nM. As for `Cc1cccc(C(=O)Nc2ccc3c(c2)CN(C(=O)c2cccc(Cl)c2)C(=O)C3)c1`, half-maximal inhibition at Acetylcholinesterase [1] (IC50) required 0.0209 nM. In other words, the picomolar range. The same measure, in the same setting: the result for `O=C1Cc2ccc(NC(=O)c3ccccc3)cc2CN1` reads 1320 nM. On the same count and under the same terms, to `Cc1cccc(C(=O)Nc2ccc3c(c2)CN(C(=O)c2cccc(C)c2)C(=O)C3)c1` belongs 0.0135 nM; to `O=C(Nc1ccc2c(c1)CN(C(=O)c1ccccc1)C(=O)C2)c1ccccc1`, 0.51 nM.

One may read the IC50 as the concentration needed to halve the response being measured.
